The NIST ThermoML archive (doi:10.1016/j.fluid.2010.10.028)

Assay: xn = mol fraction of the nth substance listed
Details: Liquid, Vibrating tube method

CC(C)=O [acetone] + CCCCCCC
Details	mass density [kg/m3]
367.48 K, 69840 kPa, x1 = 0.8992	761.04
367.48 K, 74790 kPa, x1 = 0.7024	736.93
367.48 K, 74820 kPa, x1 = 0.4	764.83
367.48 K, 74820 kPa, x1 = 0.8992	764.83
367.48 K, 74880 kPa, x1 = 0.611	727.57
367.48 K, 79790 kPa, x1 = 0.4	768.48
367.48 K, 79790 kPa, x1 = 0.8992	768.48
367.48 K, 84760 kPa, x1 = 0.7024	743.91
367.48 K, 84780 kPa, x1 = 0.4	772.02
367.48 K, 84780 kPa, x1 = 0.8992	772.02
367.48 K, 84860 kPa, x1 = 0.611	734.42
367.48 K, 89740 kPa, x1 = 0.4	775.41
367.48 K, 89740 kPa, x1 = 0.8992	775.41
367.48 K, 89840 kPa, x1 = 0.611	737.67
367.48 K, 94810 kPa, x1 = 0.611	740.81
367.48 K, 99700 kPa, x1 = 0.4	781.91
367.48 K, 99700 kPa, x1 = 0.8992	781.91
367.48 K, 104670 kPa, x1 = 0.4	785.01
367.48 K, 104670 kPa, x1 = 0.8992	785.01
367.48 K, 104780 kPa, x1 = 0.611	746.78
367.48 K, 109630 kPa, x1 = 0.4	788.01
367.48 K, 109630 kPa, x1 = 0.8992	788.01
367.48 K, 114860 kPa, x1 = 0.611	752.48
367.48 K, 119560 kPa, x1 = 0.4	793.8
367.48 K, 119560 kPa, x1 = 0.8992	793.8
367.48 K, 119860 kPa, x1 = 0.611	755.19
367.48 K, 124530 kPa, x1 = 0.4	796.59
367.48 K, 124530 kPa, x1 = 0.8992	796.59
367.48 K, 129810 kPa, x1 = 0.4	799.46
367.48 K, 129810 kPa, x1 = 0.8992	799.46
367.49 K, 1150 kPa, x1 = 0.492	636.24
367.49 K, 1160 kPa, x1 = 0.801	665.36
367.49 K, 1370 kPa, x1 = 0.4	680.97
367.49 K, 1370 kPa, x1 = 0.8992	680.97
367.49 K, 4860 kPa, x1 = 0.801	672.53
367.49 K, 4870 kPa, x1 = 0.492	643.34
367.49 K, 4870 kPa, x1 = 0.611	651.91
367.49 K, 9840 kPa, x1 = 0.801	681.17
367.49 K, 9860 kPa, x1 = 0.492	651.84
367.49 K, 14860 kPa, x1 = 0.801	688.96
367.49 K, 14870 kPa, x1 = 0.492	659.41
367.49 K, 14880 kPa, x1 = 0.611	668.22
367.49 K, 19850 kPa, x1 = 0.801	696.01
367.49 K, 19860 kPa, x1 = 0.492	666.25
367.49 K, 24850 kPa, x1 = 0.801	702.51
367.49 K, 29860 kPa, x1 = 0.801	708.54
367.49 K, 34850 kPa, x1 = 0.492	683.77
367.49 K, 34860 kPa, x1 = 0.801	714.16
367.49 K, 34950 kPa, x1 = 0.4	729.18
367.49 K, 34950 kPa, x1 = 0.8992	729.18
367.49 K, 39860 kPa, x1 = 0.611	698.15
367.49 K, 44850 kPa, x1 = 0.492	693.62
367.49 K, 54840 kPa, x1 = 0.801	733.6
367.49 K, 59920 kPa, x1 = 0.611	716.21
367.49 K, 69900 kPa, x1 = 0.611	723.93
367.49 K, 79870 kPa, x1 = 0.611	731.07
367.49 K, 94730 kPa, x1 = 0.4	778.72
367.49 K, 94730 kPa, x1 = 0.8992	778.72
367.49 K, 99800 kPa, x1 = 0.611	743.84
367.49 K, 99840 kPa, x1 = 0.492	733.62
367.49 K, 104810 kPa, x1 = 0.492	736.49
367.49 K, 109800 kPa, x1 = 0.492	739.28
367.49 K, 109850 kPa, x1 = 0.611	749.68
367.49 K, 114600 kPa, x1 = 0.4	790.95
367.49 K, 114600 kPa, x1 = 0.8992	790.95
367.49 K, 114760 kPa, x1 = 0.492	742
367.49 K, 119830 kPa, x1 = 0.492	744.68
367.49 K, 124840 kPa, x1 = 0.492	747.26
367.49 K, 124860 kPa, x1 = 0.611	757.81
367.49 K, 129850 kPa, x1 = 0.492	749.77
367.49 K, 129850 kPa, x1 = 0.611	760.39
367.5 K, 24850 kPa, x1 = 0.492	672.52
367.5 K, 29850 kPa, x1 = 0.492	678.35
367.5 K, 39850 kPa, x1 = 0.801	719.44
367.5 K, 39860 kPa, x1 = 0.492	688.84
367.5 K, 44870 kPa, x1 = 0.801	724.43
367.5 K, 49850 kPa, x1 = 0.492	698.13
367.5 K, 49850 kPa, x1 = 0.801	729.14
367.5 K, 54850 kPa, x1 = 0.492	702.41
367.5 K, 59830 kPa, x1 = 0.801	737.85
367.5 K, 59870 kPa, x1 = 0.492	706.5
367.5 K, 64830 kPa, x1 = 0.492	710.35
367.5 K, 64930 kPa, x1 = 0.801	742.02
367.5 K, 69830 kPa, x1 = 0.492	714.07
367.5 K, 69910 kPa, x1 = 0.801	745.93
367.5 K, 74910 kPa, x1 = 0.801	749.67
367.5 K, 74930 kPa, x1 = 0.492	717.72
367.5 K, 79900 kPa, x1 = 0.801	753.27
367.5 K, 79920 kPa, x1 = 0.492	721.13
367.5 K, 84870 kPa, x1 = 0.801	756.74
367.5 K, 84880 kPa, x1 = 0.492	724.42
367.5 K, 89850 kPa, x1 = 0.801	760.09
367.5 K, 89870 kPa, x1 = 0.492	727.6
367.5 K, 94840 kPa, x1 = 0.801	763.33
367.5 K, 94860 kPa, x1 = 0.492	730.65
367.5 K, 99820 kPa, x1 = 0.801	766.48
367.5 K, 104790 kPa, x1 = 0.801	769.51
367.5 K, 109770 kPa, x1 = 0.801	772.47
367.5 K, 114840 kPa, x1 = 0.801	775.42
367.5 K, 119830 kPa, x1 = 0.801	778.22
367.5 K, 124850 kPa, x1 = 0.801	780.96
367.5 K, 129850 kPa, x1 = 0.801	783.62
377.39 K, 1230 kPa, x1 = 0.611	632.91
377.39 K, 4860 kPa, x1 = 0.611	640.68
377.39 K, 9830 kPa, x1 = 0.7024	659.14
377.39 K, 9860 kPa, x1 = 0.611	650.09
377.39 K, 14860 kPa, x1 = 0.611	658.35
377.39 K, 39860 kPa, x1 = 0.611	690.09
377.39 K, 74880 kPa, x1 = 0.611	720.69
377.39 K, 84850 kPa, x1 = 0.611	727.78
377.39 K, 99800 kPa, x1 = 0.611	737.52
377.39 K, 119850 kPa, x1 = 0.611	749.19
377.39 K, 124860 kPa, x1 = 0.611	751.9
377.4 K, 1220 kPa, x1 = 0.492	624.83
377.4 K, 1220 kPa, x1 = 0.7024	641.88
377.4 K, 1230 kPa, x1 = 0.801	652.62
377.4 K, 4820 kPa, x1 = 0.7024	649.63
377.4 K, 4850 kPa, x1 = 0.801	660.44
377.4 K, 4860 kPa, x1 = 0.492	632.5
377.4 K, 9850 kPa, x1 = 0.492	641.73
377.4 K, 9860 kPa, x1 = 0.801	669.95
377.4 K, 14830 kPa, x1 = 0.7024	667.51
377.4 K, 14850 kPa, x1 = 0.801	678.33
377.4 K, 14860 kPa, x1 = 0.492	649.89
377.4 K, 19830 kPa, x1 = 0.7024	675.07
377.4 K, 19850 kPa, x1 = 0.492	657.2
377.4 K, 19850 kPa, x1 = 0.801	685.9
377.4 K, 19860 kPa, x1 = 0.611	665.8
377.4 K, 24840 kPa, x1 = 0.492	663.85
377.4 K, 24840 kPa, x1 = 0.7024	681.95
377.4 K, 24860 kPa, x1 = 0.611	672.6
377.4 K, 24870 kPa, x1 = 0.801	692.89
377.4 K, 29840 kPa, x1 = 0.7024	688.29
377.4 K, 29860 kPa, x1 = 0.611	678.86
377.4 K, 34830 kPa, x1 = 0.7024	694.18
377.4 K, 34840 kPa, x1 = 0.492	675.68
377.4 K, 34870 kPa, x1 = 0.611	684.68
377.4 K, 39820 kPa, x1 = 0.7024	699.65
377.4 K, 39850 kPa, x1 = 0.492	681.01
377.4 K, 44820 kPa, x1 = 0.7024	704.82
377.4 K, 44850 kPa, x1 = 0.611	695.17
377.4 K, 44870 kPa, x1 = 0.492	686.02
377.4 K, 49820 kPa, x1 = 0.7024	709.68
377.4 K, 49840 kPa, x1 = 0.492	690.72
377.4 K, 49850 kPa, x1 = 0.611	699.96
377.4 K, 54810 kPa, x1 = 0.7024	714.29
377.4 K, 54870 kPa, x1 = 0.801	725.65
377.4 K, 54930 kPa, x1 = 0.611	704.59
377.4 K, 59810 kPa, x1 = 0.7024	718.67
377.4 K, 59840 kPa, x1 = 0.492	699.41
377.4 K, 59850 kPa, x1 = 0.801	730.07
377.4 K, 59940 kPa, x1 = 0.611	708.91
377.4 K, 64790 kPa, x1 = 0.7024	722.84
377.4 K, 64830 kPa, x1 = 0.801	734.28
377.4 K, 64920 kPa, x1 = 0.611	713
377.4 K, 69890 kPa, x1 = 0.7024	726.94
377.4 K, 69900 kPa, x1 = 0.611	716.92
377.4 K, 69920 kPa, x1 = 0.492	707.37
377.4 K, 69930 kPa, x1 = 0.801	738.44
377.4 K, 74790 kPa, x1 = 0.4	757.14
377.4 K, 74790 kPa, x1 = 0.8992	757.14
377.4 K, 74870 kPa, x1 = 0.7024	730.75
377.4 K, 74920 kPa, x1 = 0.801	742.33
377.4 K, 79860 kPa, x1 = 0.7024	734.43
377.4 K, 79880 kPa, x1 = 0.611	724.31
377.4 K, 79890 kPa, x1 = 0.492	714.63
377.4 K, 79910 kPa, x1 = 0.801	746.08
377.4 K, 84840 kPa, x1 = 0.7024	737.97
377.4 K, 84870 kPa, x1 = 0.492	718.02
377.4 K, 84910 kPa, x1 = 0.801	749.68
377.4 K, 89820 kPa, x1 = 0.7024	741.37
377.4 K, 89840 kPa, x1 = 0.611	731.15
377.4 K, 89860 kPa, x1 = 0.492	721.32
377.4 K, 89880 kPa, x1 = 0.801	753.15
377.4 K, 94790 kPa, x1 = 0.7024	744.65
377.4 K, 94820 kPa, x1 = 0.611	734.38
377.4 K, 94830 kPa, x1 = 0.492	724.48
377.4 K, 94860 kPa, x1 = 0.801	756.48
377.4 K, 99780 kPa, x1 = 0.7024	747.85
377.4 K, 99820 kPa, x1 = 0.492	727.55
377.4 K, 99840 kPa, x1 = 0.801	759.75
377.4 K, 104750 kPa, x1 = 0.7024	750.93
377.4 K, 104780 kPa, x1 = 0.611	740.53
